Source: publication PMC5413024, “Mechanistic insights into the more potent effect of KP-54 compared to KP-10 in vivo” (PLoS ONE, 2017)
Values after ≈ are worked out from the molar mass of the structure shown. Ends that are not written are not given here.

Key:
[1] = Study 4: pharmacokinetics of plasma kisspeptin after i.p. injection (radioimmunoassay); assay type: in vivo, mouse; conditions: male mice
Experimental: Male mice received a single i.p. injection of 1 nmol KP-10 or 1 nmol KP-54. 100 μl of blood was collected from the lateral tail vein from groups of mice (n = 4) for each time point (0, 1 min, 2 min, 5 min, 10 min, 30 min, 60 min and 120 min). Terminal bleeds were collected from the vena cava. Blood was mixed with 5 μl EDTA, centrifuged at 10,000 x g for 10 min at 4°C to obtain the plasma fraction, and stored at -20°C until assayed. Kisspeptin concentrations were measured using an established in house competitive radioimmunoassay (RIA, [5]. Briefly, this RIA uses a sheep polyclonal antibody (GQ2), raised against human KP-54, which cross-reacts with human KP-54, KP-14 and KP-10.
3–5 month old wild-type (129S6/SvEv) male mice were used in this study. The mice were housed in open cages on a 12 hour light cycle (lights on at 0700 h) at a controlled temperature (22°C), and were provided with food and water ad libitum. All experiments were performed under the authority of a United Kingdom Home Office Project License and were approved by a Cambridge Animal Ethics Committee.

[2] = from the product data sheets; ref product data sheets (manufacturer); cited from earlier work
Experimental: KP-10 [human Metastin (45–54) amide, M-2816] was purchased from Sigma-Aldrich. KP-10 consists of the C-terminal 10-amino acids of KP-54. Human KP-54 was synthesized by the Advanced Biotechnology Centre, Imperial College, London, UK. BSA-FITC was purchased from Sigma (A9771). From the product data sheets, the solubility of KP-10 and KP-54 in water is 1mg/ml. We prepared stock solutions in sterile PBS at 100 μM, which is almost ten times lower than the solubility limit set by the manufacturer. The 100 μM stock solution was diluted in sterile PBS and 100 μl of the working solution was injected to ...

[3] = men / humans; ref [5], [30] (KP-10), ref [5] (KP-54); cited from earlier work
Text: It should be noted, however that the RIA used to measure KP-54 may also detect shorter breakdown products of this protein that might be biologically inert. It is likely that the lack of GnRH neuronal activation and sustained LH release by KP-10 is mainly due to its instability. It is noteworthy that we failed ...

[4] = test system: LH secretion; assay: S1 Fig: plasma LH after i.p. injection of penetratin-extended Kp10; assay type: in vivo, mouse; conditions: single 100 μl i.p. injection, blood at 10 min and 2 hrs, n = 2 per treatment
Experimental: Supplementary file pone.0176821.s001.tif: S1 Fig Kisspeptin-penetratin treatment. This experiment aimed at facilitating Kp10 to cross the blood-brain-barrier by adding a penetratin extension to the […] end of Kp10, thereby putatively provided with higher permeability. Two penetratin variants were tested: the pen(ala2) residue has a lower protein transduction domain activity than pen-Kp10. […] Each animal received a single 100 μl i.p. injection of either PBS, Kp10, Kp54, Pen-Kp10 or Pen(ala2)-Kp10. Blood samples were collected at 10 min (from tail vein) and 2 hrs (from vena cava upon sacrifice) time points after administration. […] (TIF) Click here for additional data file.

peak (maximum) plasma kisspeptin level ([1]; 1 nmol i.p., RIA (GQ2 antibody), mean ± SEM, n = 4 per time point)	plasma kisspeptin level by 10 min post-injection ([1]; 1 nmol i.p., RIA, n = 4)	time of peak plasma kisspeptin level post-injection ([1]; 1 nmol i.p., RIA, n = 4 per time point)	plasma half-life ([1]; 1 nmol i.p., estimated from RIA plasma levels, RIA recognises all forms of Kp, may include breakdown products)	fraction of the injected peptide entering the bloodstream after intraperitoneal injection ([1]; 1 nmol i.p., assuming a total blood volume of approximately 5 ml)	peak level in the bloodstream, times lower than that of KP-54 ([1]; equimolar 1 nmole i.p., 250 pmol/L vs 12000 pmol/L)	Compound	solubility in water [2]	half-life in the blood stream in humans [3]	effect of penetratin extension on Kp10-induced LH secretion [4]
248 ± 9 pmol/L	undetectable	2 min	about 4 min	around 0.13%	~50 times	CC(C)C[C@H](NC(=O)CNC(=O)[C@H](Cc1ccccc1)NC(=O)[C@H](CO)NC(=O)[C@H](CC(N)=O)NC(=O)[C@H](Cc1c[nH]c2ccccc12)NC(=O)[C@H](CC(N)=O)NC(=O)[C@@H](N)Cc1ccc(O)cc1)C(=O)N[C@@H](CCCNC(=N)N)C(=O)N[C@@H](Cc1ccccc1)C(N)=O [KP-10, human Metastin (45–54) amide]	1000 µg/mL (≈ 768 µM)	3.8 min	–
–	–	–	–	–	–	NRRMAWAKYYNWNSFGLRF-NH2 [Pen(ala2)-Kp10]	–	–	does not improve the Kp10-induced LH secretion
–	–	–	–	–	–	NRRMKWKKYYNWNSFGLRF-NH2 [Pen-Kp10]	–	–	does not improve the Kp10-induced LH secretion
